A short description of data set [1]: in vitro. As to conditions: human, hek293 cells. More on the design: species or system HB2, CCD841.
A short description of data set [2]: in vitro. Also on record: species or system CCD841, HEK293. The following applies: human, hb2 cells, read-out: HB-2 Cells Viability (%).
The target in the next data set is T1, K-Ras^G12C (Homo sapiens, UniProt P01116, G12C, species not given).
T1 construct: gene KRAS; residues 1-169, recombinant, construct 19245 Da
Description: intact protein LC/MS labeling. In kind it is binding. As to conditions: covalent; 24 h, 4 °C, 2 μM protein, pools of five, pH 8.0.

The target of another data set is T2, BSA (Bos taurus, UniProt P02769).
T2 construct: gene ALB
More on the design: Intact protein LC/MS covalent labelling, fragments in pools of five, 200 uM each, 4 °C. The following applies: 24 h, 4 °C, pool of five; 200 µM; covalent.

The next data set addresses T3, PCAF (Homo sapiens, UniProt Q92831).
T3 construct: gene KAT2B
More on the design: Intact protein LC/MS covalent labelling, fragments in pools of five, 200 uM each, 4 °C. The following applies: 24 h, 4 °C, pool of five; 200 µM; covalent.

The target in the next data set is T4, OTUB2 (OTUB2A) (Homo sapiens, UniProt Q96DC9).
T4 construct: full length residues 1-234, E. coli BL21(DE3)-R3, His tag removed by TEV, construct 27312 Da
T4 sequence (Q96DC9 1-234): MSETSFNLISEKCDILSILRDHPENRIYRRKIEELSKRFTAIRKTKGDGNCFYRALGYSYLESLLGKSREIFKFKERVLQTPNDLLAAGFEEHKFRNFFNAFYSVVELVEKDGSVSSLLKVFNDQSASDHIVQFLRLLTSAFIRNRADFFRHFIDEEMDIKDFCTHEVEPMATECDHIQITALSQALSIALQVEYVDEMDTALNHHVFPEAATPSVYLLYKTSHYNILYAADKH
Also on record: Intact protein LC/MS covalent labelling, fragments in pools of five, 200 uM each, 4 °C. The following applies: 24 h, 4 °C, pool of five; 200 µM; covalent.

A further data set concerns the target T5, NUDT7 (Homo sapiens, UniProt P0C024).
T5 construct: residues 14-235, E. coli, pNIC28-Bsa4, N-terminal His6 tag removed by TEV, construct 26672 Da
Also on record: Intact protein LC/MS covalent labelling, fragments in pools of five, 200 uM each, 4 °C. The following applies: 24 h, 4 °C, pool of five; 200 µM; covalent.

The next data set concerns the target T6, NNMT (hNNMT) (Homo sapiens, UniProt P40261).
T6 construct: wild type, N-terminal His6 tag kept (no cleavage described), E. coli, construct 31248 Da
T6 sequence (P40261 1-264): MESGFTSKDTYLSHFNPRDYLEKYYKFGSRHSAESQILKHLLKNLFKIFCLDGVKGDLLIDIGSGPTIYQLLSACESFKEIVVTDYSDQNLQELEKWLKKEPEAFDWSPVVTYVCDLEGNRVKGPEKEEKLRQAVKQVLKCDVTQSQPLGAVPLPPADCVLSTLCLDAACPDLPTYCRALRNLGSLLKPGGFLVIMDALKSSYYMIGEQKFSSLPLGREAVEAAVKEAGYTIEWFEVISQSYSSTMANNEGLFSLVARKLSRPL
Also on record: Intact protein LC/MS covalent labelling, fragments in pools of five, 200 uM each, 4 °C. The following applies: 24 h, 4 °C, pool of five; 200 µM; covalent.

Data set [3] is described as follows: in vitro. Also on record: species or system HB2, HEK293. As to conditions: human, ccd841 cells.

The results in this text go back to publication PMC6556873, “Rapid Covalent-Probe Discovery by Electrophile-Fragment Screening” (Journal of the American Chemical Society, 2019).

By viability is commonly meant the share of living cells, or the viability signal relative to a control.

Like-named read-outs stand apart in the source and are kept apart here.

T5 sequence (P0C024 14-235): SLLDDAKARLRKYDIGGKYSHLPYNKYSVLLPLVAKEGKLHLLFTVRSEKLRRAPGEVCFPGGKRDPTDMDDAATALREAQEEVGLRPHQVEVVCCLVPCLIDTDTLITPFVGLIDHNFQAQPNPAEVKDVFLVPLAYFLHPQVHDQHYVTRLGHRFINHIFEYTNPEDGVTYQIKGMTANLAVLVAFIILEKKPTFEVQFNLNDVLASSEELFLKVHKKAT
T3 sequence (Q92831 whole entry): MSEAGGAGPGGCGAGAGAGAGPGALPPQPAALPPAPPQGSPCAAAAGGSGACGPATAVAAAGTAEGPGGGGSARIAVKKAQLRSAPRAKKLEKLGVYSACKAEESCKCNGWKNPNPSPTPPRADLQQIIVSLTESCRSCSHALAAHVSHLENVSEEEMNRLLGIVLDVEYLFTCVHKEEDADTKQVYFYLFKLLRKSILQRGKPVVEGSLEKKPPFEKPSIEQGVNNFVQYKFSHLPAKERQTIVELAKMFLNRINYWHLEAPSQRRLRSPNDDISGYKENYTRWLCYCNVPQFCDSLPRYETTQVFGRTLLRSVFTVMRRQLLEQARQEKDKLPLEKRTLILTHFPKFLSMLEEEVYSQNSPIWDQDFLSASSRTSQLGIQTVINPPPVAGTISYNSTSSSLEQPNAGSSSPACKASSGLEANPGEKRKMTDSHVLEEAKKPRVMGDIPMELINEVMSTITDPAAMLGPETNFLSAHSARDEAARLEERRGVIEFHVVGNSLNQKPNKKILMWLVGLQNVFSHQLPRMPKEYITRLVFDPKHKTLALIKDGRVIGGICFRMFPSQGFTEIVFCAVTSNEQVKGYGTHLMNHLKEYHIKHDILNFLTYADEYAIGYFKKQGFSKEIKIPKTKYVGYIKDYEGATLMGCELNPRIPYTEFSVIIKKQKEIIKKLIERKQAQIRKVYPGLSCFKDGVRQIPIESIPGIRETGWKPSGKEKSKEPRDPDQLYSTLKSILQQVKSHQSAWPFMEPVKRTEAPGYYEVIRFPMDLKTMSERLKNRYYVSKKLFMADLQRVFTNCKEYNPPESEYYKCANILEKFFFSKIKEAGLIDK
T1 sequence (P01116 1-169 G12C): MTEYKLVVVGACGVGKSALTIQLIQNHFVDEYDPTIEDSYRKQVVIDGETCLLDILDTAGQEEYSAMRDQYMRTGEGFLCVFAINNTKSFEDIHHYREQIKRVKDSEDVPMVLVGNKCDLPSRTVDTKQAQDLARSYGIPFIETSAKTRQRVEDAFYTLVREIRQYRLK
T2 sequence (P02769 whole entry): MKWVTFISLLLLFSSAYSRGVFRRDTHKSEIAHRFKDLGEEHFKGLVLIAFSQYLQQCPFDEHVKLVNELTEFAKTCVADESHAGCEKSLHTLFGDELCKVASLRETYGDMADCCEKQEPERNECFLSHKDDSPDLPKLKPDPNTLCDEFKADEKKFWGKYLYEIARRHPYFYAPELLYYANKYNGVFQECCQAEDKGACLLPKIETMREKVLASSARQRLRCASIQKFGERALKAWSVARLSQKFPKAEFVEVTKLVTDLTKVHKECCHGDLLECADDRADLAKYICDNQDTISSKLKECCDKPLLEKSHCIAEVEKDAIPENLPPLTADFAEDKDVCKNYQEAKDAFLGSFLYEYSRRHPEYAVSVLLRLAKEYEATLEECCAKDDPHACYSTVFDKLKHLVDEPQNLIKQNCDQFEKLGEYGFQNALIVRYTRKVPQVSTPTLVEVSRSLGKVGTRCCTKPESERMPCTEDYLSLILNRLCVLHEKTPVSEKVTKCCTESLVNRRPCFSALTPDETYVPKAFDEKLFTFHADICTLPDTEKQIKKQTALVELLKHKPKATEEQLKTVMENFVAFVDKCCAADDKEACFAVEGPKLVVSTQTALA

As for `Cl.O=C(CCl)N1CCN(Cc2ccc(Cl)cc2)CC1` [PCM-0102818], the viability at 48 h, 10 µM in “in vitro [1]” is 7.8%; in the data set “in vitro [2]”, 8.2%; in the data set “in vitro [3]”, 31.6%. In addition, the “% labeling at 200 μM” value at K-Ras^G12C is on record as 63%. Further, the BSA on BSA is recorded as 0. The PCAF on PCAF amounted to 0. For the same compound, the OTUB2 on OTUB2 (OTUB2A) was found to be 0.17. The compound further registered an NUDT7 on NUDT7 of 0. At NNMT (hNNMT), the NNMT is on record as 0.14.
